Test results published in ChEMBL document CHEMBL1128645, “Synthesis and antiviral activity of phosphonate derivatives of enantiomeric dihydro-2H-pyranyl nucleosides” (Bioorg Med Chem Lett, 1995).
Calls of active or inactive are those of the source.

Columns and labels:
[1] = Half life at pH 3; type: ADME; conditions: buffer
Cytomegalovirus = assay: Antiviral activity against cytomegalovirus (CMV); no activity; type: functional, organism-based
[2] = tested on: Human immunodeficiency virus 1; assay: Antiviral activity against human immunodeficiency virus(HIV-1); no activity; type: functional, organism-based
Human alphaherpesvirus 2 = assay: Antiviral activity against herpes simplex virus (HSV-2); no activity; type: functional, organism-based
[3] = tested on: Human immunodeficiency virus 2; assay: Antiviral activity against human immunodeficiency virus(HIV-2); no activity; type: functional, organism-based
Human alphaherpesvirus 3 = assay: Antiviral activity against Varicella-Zoster virus (VZV); no activity; type: functional, organism-based
Human alphaherpesvirus 1 = assay: Antiviral activity against herpes simplex virus (HSV-1); no activity; type: functional, organism-based

Nc1nc(O)c2ncn([C@H]3C=C[C@@H](OCP(=O)(O)O)CO3)c2n1
5 h: half-life [1]

Nc1nc(O)c2ncn([C@@H]3C=C[C@H](OCP(=O)(O)O)OC3)c2n1
inactive: Activity (Cytomegalovirus) | Activity [2] | Activity (Human alphaherpesvirus 2) | Activity [3] | Activity (Human alphaherpesvirus 3) | Activity (Human alphaherpesvirus 1)

Nc1nc(O)c2ncn([C@H]3C=C[C@@H](OCP(=O)(O)O)OC3)c2n1
inactive: Activity (Cytomegalovirus) | Activity [2] | Activity (Human alphaherpesvirus 2) | Activity [3] | Activity (Human alphaherpesvirus 3) | Activity (Human alphaherpesvirus 1)
